Columns and labels:
Assay type in all cases: in vivo
[1] = test system: barnyardgrass (Echinochloa crus-galli); experiment: Test A preemergence, barnyardgrass; conditions: 0 to 100 scale (0 no effect, 100 complete control)
Method in brief: (§1)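 Injury scores (0 no effect, 100 complete control) were assigned by visually comparing treated with untreated plants after about 10 days of greenhouse growth. Seeds for soil treatment were sown into a loam and sand blend, while plants for foliar treatment grew in pots of that same blend.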

kochia (Kochia scoparia) [2] = experiment: Test A preemergence, kochia; conditions: 0 to 100 scale (0 no effect, 100 complete control)
Method in brief: as §1

[3] = test system: ragweed (common ragweed, Ambrosia elatior); experiment: Test A preemergence, ragweed; conditions: 0 to 100 scale (0 no effect, 100 complete control)
Method in brief: as §1

[4] = test system: ryegrass, Italian (Lolium multiflorum); experiment: Test A preemergence, Italian ryegrass; conditions: 0 to 100 scale (0 no effect, 100 complete control)
Method in brief: as §1

[5] = test system: foxtail, giant (Setaria faberii); experiment: Test A preemergence, giant foxtail; conditions: 0 to 100 scale (0 no effect, 100 complete control)
Method in brief: as §1

[6] = test system: pigweed (Amaranthus retroflexus); experiment: Test A preemergence, pigweed; conditions: 0 to 100 scale (0 no effect, 100 complete control)
Method in brief: as §1

[7] = test system: barnyardgrass (Echinochloa crus-galli); experiment: Test A postemergence, barnyardgrass; conditions: 0 to 100 scale (0 no effect, 100 complete control)
Method in brief: as §1

kochia (Kochia scoparia) [8] = experiment: Test A postemergence, kochia; conditions: 0 to 100 scale (0 no effect, 100 complete control)
Method in brief: as §1

[9] = test system: ragweed (common ragweed, Ambrosia elatior); experiment: Test A postemergence, ragweed; conditions: 0 to 100 scale (0 no effect, 100 complete control)
Method in brief: as §1

[10] = test system: ryegrass, Italian (Lolium multiflorum); experiment: Test A postemergence, Italian ryegrass; conditions: 0 to 100 scale (0 no effect, 100 complete control)
Method in brief: as §1

[11] = test system: foxtail, giant (Setaria faberii); experiment: Test A postemergence, giant foxtail; conditions: 0 to 100 scale (0 no effect, 100 complete control)
Method in brief: as §1

[12] = test system: pigweed (Amaranthus retroflexus); experiment: Test A postemergence, pigweed; conditions: 0 to 100 scale (0 no effect, 100 complete control)
Method in brief: as §1

[13] = test system: blackgrass (Alopecurus myosuroides); experiment: Test A postemergence, blackgrass; conditions: 0 to 100 scale (0 no effect, 100 complete control)
Method in brief: as §1

[14] = test system: galium (catchweed bedstraw, Galium aparine); experiment: Test A postemergence, galium; conditions: 0 to 100 scale (0 no effect, 100 complete control)
Method in brief: as §1

[15] = test system: wheat (Triticum aestivum); experiment: Test A postemergence, wheat; conditions: 0 to 100 scale (0 no effect, 100 complete control)
Method in brief: as §1

corn (Zea mays) = experiment: Test A postemergence, corn; conditions: 0 to 100 scale (0 no effect, 100 complete control)
Method in brief: as §1

rice (Oryza sativa) = experiment: Test B flooded paddy test, rice; conditions: 250 g ai/ha, applied to paddy water, visual rating after 13 to 15 days, scale 0 (no effect) to 100 (complete control)
Method in brief: (§2)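 Compound was added to standing water 3 cm above soil, flood maintained, and plants held in a greenhouse before visual scoring against controls at 13 to 15 days.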

[16] = test system: sedge, umbrella (small-flower umbrella sedge, Cyperus difformis); experiment: Test B flooded paddy test, umbrella sedge; conditions: 250 g ai/ha, applied to paddy water, visual rating after 13 to 15 days, scale 0 (no effect) to 100 (complete control)
Method in brief: as §2

[17] = test system: ducksalad (Heteranthera limosa); experiment: Test B flooded paddy test, ducksalad; conditions: 250 g ai/ha, applied to paddy water, visual rating after 13 to 15 days, scale 0 (no effect) to 100 (complete control)
Method in brief: as §2

[18] = test system: barnyardgrass (Echinochloa crus-galli); experiment: Test B flooded paddy test, barnyardgrass; conditions: 250 g ai/ha, applied to paddy water, visual rating after 13 to 15 days, scale 0 (no effect) to 100 (complete control)
Method in brief: as §2

[19] = 125 g ai/ha, visual injury, approximately 10 days

Which results are given for `CN1C[C@H](c2cccc(Oc3ccc(F)cn3)c2)[C@@H](C(=O)Nc2ccc(F)c(F)c2F)C1=O` [Compound 87, (3S,4S)-4-[3-[(5-fluoro-2-pyridinyl)oxy]phenyl]-1-methyl-2-oxo-N-(2,3,4-trifluorophenyl)-3-pyrrolidinecarboxamide]?
Plant response rating, Barnyardgrass ([1]; 31 g ai/ha): 60; Plant response rating, Barnyardgrass ([1]; 125 g ai/ha): 90; Plant response rating, Kochia (kochia (Kochia scoparia) [2]; 31 g ai/ha): 0; Plant response rating, Kochia (kochia (Kochia scoparia) [2]; 125 g ai/ha): 60; Plant response rating, Ragweed ([3]; 31 g ai/ha): 0; Plant response rating, Ragweed ([3]; 125 g ai/ha): 0; Plant response rating, Ryegrass, Italian ([4]; 31 g ai/ha): 0; Plant response rating, Ryegrass, Italian ([4]; 125 g ai/ha): 80; Plant response rating, Foxtail, Giant ([5]; 31 g ai/ha): 90; Plant response rating, Foxtail, Giant ([5]; 125 g ai/ha): 90; Plant response rating, Pigweed ([6]; 31 g ai/ha): 70; Plant response rating, Pigweed ([6]; 125 g ai/ha): 70; Plant response rating, Barnyardgrass ([7]; 31 g ai/ha): 50; Plant response rating, Barnyardgrass [7, 19]: 80; Plant response rating, Kochia (kochia (Kochia scoparia) [8]; 31 g ai/ha): 0; Plant response rating, Kochia (kochia (Kochia scoparia) [8]; [19]): 30; Plant response rating, Ragweed ([9]; 31 g ai/ha): 0; Plant response rating, Ragweed [9, 19]: 0; Plant response rating, Ryegrass, Italian ([10]; 31 g ai/ha): 40; Plant response rating, Ryegrass, Italian [10, 19]: 70; Plant response rating, Foxtail, Giant ([11]; 31 g ai/ha): 70; Plant response rating, Foxtail, Giant [11, 19]: 80; Plant response rating, Pigweed ([12]; 31 g ai/ha): 0; Plant response rating, Pigweed [12, 19]: 70; Plant response rating, Blackgrass ([13]; 31 g ai/ha): 30; Plant response rating, Blackgrass [13, 19]: 60; Plant response rating, Galium ([14]; 31 g ai/ha): 30; Plant response rating, Galium [14, 19]: 60; Plant response rating, Wheat ([15]; 31 g ai/ha): 0; Plant response rating, Wheat [15, 19]: 40; Plant response rating, Corn (corn (Zea mays); 31 g ai/ha): 60; Plant response rating, Corn (corn (Zea mays); [19]): 90; Plant response rating, Rice (Flood) (rice (Oryza sativa)): 0; Plant response rating, Sedge, Umbrella (Flood) [16]: 0; Plant response rating, Ducksalad (Flood) [17]: 85; Plant response rating, Barnyardgrass (Flood) [18]: 60
